Experiments:
[1] = tested on: Normal human dermal fibroblasts (NHDFs); experiment: Stimulatory effect on collagen production: synthesis rate of procollagen type I (C-peptide EIA, corrected for total protein); format: cell-based; conditions: NHDF, 48 hr, negative control 100.0±0.0%
Method: In this example, stimulatory effects of major PDE5 inhibitors on collagen production were investigated in order to determine whether the PDE5 inhibitors are effective in reducing skin wrinkles. Collagen is a very important substance involved in the regulation of wrinkles. Collagen disruption is known to lead to the formation of wrinkles. Collagen production plays an important role in the reduction of wrinkles.
Normal human dermal fibroblasts (NHDFs) were cultured in a complete medium. 400 μl (1×10^5 cells) of the NHDF culture was placed in each well of a 48-well plate and were cultured in an incubator (MCO-20 AIC, Sanyo, Japan) at 37 C.° and 5% CO2 for 24 hr. After completion of culturing, the culture fluid was discarded from the wells. 500 μl of D-phosphate buffered saline (D-PBS) was added to each well for washing. Thereafter, 800 μl of a test substance and 800 μl of a positive control were added to the corresponding wells. 800 μl of a serum-free medium supplemented with DMSO was added to the wells of a negative control. The culture was continued in an incubator at 37 C.° and 5% CO2 for 48 hr. After culturing was completed, the culture fluids were collected from the wells, followed by centrifugation (25 C.°, 3,000 rpm, 10 min). The supernatants were used for the quantification of procollagen type I. After 1 mL of D-PBS was added to each well of the plate, from which the culture fluids had been removed, for washing, 30 μl of a cell lysis buffer (Lot No.: 41, Cell Signaling Technology, U.S.A) was added to each well. The plate was frozen during storage in a deep freezer (DFU-657CL, Operon, Korea) at −70 C.° for 2 hr, and thawed at room temperature. The freeze-thaw procedure was repeated twice to lyse the cells. Each of the cell lysates was collected and centrifuged (Micro 17TR, Hanil Science Industrial, Korea) (4 C.°, 13000 rpm, 30 min). The supernatant was used for total protein quantification.
40 μl of the obtained supernatant was added to each well of a 96-well plate. A standard solution from a BCA protein assay kit (Lot No.: KK140637, Pierce Biotechnology Inc., USA) was diluted stepwise to different concentrations (250, 125, 50, 25, 5 and 0 μg/mL). 40 μl of the dilute solution was added to each well. 160 μl of a reagent mixture from the assay kit was added to each well. Thereafter, the resulting mixtures were allowed to react in an incubator (NB-201V, n-Biotec, Korea) at 60 C.° for 30 min. After completion of the reaction, the absorbance of each well was measured at 562 nm using an ELISA reader (PowerWave XS, BioTek Instruments, Inc., USA). The amounts of total proteins in the wells containing the test substance, the positive control and the negative control were determined by substituting the absorbance value of each well into the standard curve equation.
100 μl of the obtained supernatant was added to each well of a 96-well plate from a procollagen type I C-peptide EIA kit (Lot No.: AB01520C, Takara Bio Inc., Japan). A standard solution from the kit was diluted stepwise to different concentrations (640, 320, 160, 80, 40, 20, 10 and 0 ng/mL). 100 μl of the dilute solution was added to each well. Thereafter, the resulting mixtures were allowed to react in an incubator at 37 C.° for 2 hr. The reaction solution was discarded from each well. The well was washed with 400 μl of PBS (×3). 100 μl of solution 1 from the kit was added to each well. The reaction was carried out at 37 C.° for 1 hr. After completion of the reaction, the reaction solution was discarded from each well and 400 μl of PBS was added to the well for washing (×4). 100 μl of a tetramethylbenzidine (TMBZ) substrate solution from the kit was added to each well. The reaction was carried out at 30 C.° for 15 min. Thereafter, 100 μl of 1 N H2SO4 solution was added to each well to stop the reaction. The absorbance of each well was measured at 450 nm using an ELISA reader. […]

[2] = tested on: UVB-induced skin wrinkles of hairless mice; experiment: Wrinkle reduction in the skin of UVB-irradiated hairless mice (photographs); format: in vivo
Method: An examination was made as to whether the PDE5 inhibitors can substantially reduce skin wrinkles of animal models. Hairless mice, aged 7 weeks, were irradiated with UVB (290-320 nm, 312 nm) to induce wrinkles. The compound or the control was applied to each mouse and its influence on the induced wrinkles was evaluated. More specifically, the mice were irradiated with 60 mJ/cm^2 (1 minimal […] dose (MED)) for 3 days weekly during the first and second week after wrinkling, 120 mJ/cm^2 (2 MED) for 3 days during the third week after wrinkling, 180 mJ/cm^2 (3 MED) for 3 days during the fourth week after wrinkling, 240 mJ/cm^2 (4 MED) for 3 days weekly during the fifth to eighth week after wrinkling, and 240 mJ/cm^2 (4 MED) for 5 days weekly during the ninth to fifteenth week after wrinkling. During the sixteenth and seventeenth week after wrinkling, about 0.5 ml of squalene-OOH, an oxidation product of squalene by UV irradiation, was applied once using a brush to induce deeper wrinkles. […]

[3] = 10 mM (about 5%), applied to skin twice daily for 14 days, n=7

Row | SMILES | Synthesis rate of procollagen type I ([1]; 10 nM, mean of three repeats) [%] | Synthesis rate of procollagen type I ([1]; 100 nM, p<0.01) [%] | Skin condition after application [2, 3] | Wrinkle reduction (skin photographs) [2, 3] | Skin condition after application (cornified layers) ([2]; 0.05%, applied to skin twice, later once daily, n=6)
1 | CN1CC(=O)N2[C@H](c3ccc4c(c3)OCO4)c3[nH]c4ccccc4c3C[C@@H]2C1=O [tadalafil] | 147.2±8.1 | 174.7±10.2 |  |  | 
2 | CCCc1nc(C)c2c(=O)[nH]c(-c3cc(S(=O)(=O)N4CCN(CC)CC4)ccc3OCC)nn12 [vardenafil] | 140.7±7.8 | 162.7±10.0 |  |  | 
3 | CCCc1nn(C)c2c(=O)[nH]c(-c3cc(S(=O)(=O)N4CCN(C)CC4)ccc3OCC)nc12 [sildenafil] | 108.6±8.1 | 160.7±12.1 | gradually became clean | Wrinkle reduction was observed | 
4 | CC1=C(/C=C/C(C)=C/C=C/C(C)=C/C(=O)O)C(C)(C)CCC1 [retinoic acid] |  |  |  |  | Cornified layers were formed and continuously peeled
